Test results taken from the NIST ThermoML archive (doi:10.1016/j.jct.2007.10.010).
“And” between values parts separate entries of the source, which are not always exact repeats. Equal entries are not always repeated.

How the values were obtained:
[1] = xn = mol fraction of the nth substance listed; settings: 101 kPa, Liquid
[2] = refractive index (Na D-line) (dimensionless); settings: 298.15 K; 101.33 kPa; Liquid; Standard Abbe refractometry
[3] = 101 kPa, Liquid

CCCCCCCC [octane] + c1ccccc1
[1]
Settings	mass density [kg/m3]
298.15 K, x1 = 0.06831	850.82
298.15 K, x1 = 0.1358	831.14
298.15 K, x1 = 0.2041	813.51
298.15 K, x1 = 0.2616	800.23
298.15 K, x1 = 0.3322	785.49
298.15 K, x1 = 0.3912	774.33
298.15 K, x1 = 0.4581	762.82
298.15 K, x1 = 0.5388	750.32
298.15 K, x1 = 0.6054	740.95
298.15 K, x1 = 0.664	733.37
298.15 K, x1 = 0.7116	727.59
298.15 K, x1 = 0.7979	717.91
298.15 K, x1 = 0.8682	710.7
298.15 K, x1 = 0.9264	705.15
298.15 K, x1 = 1	698.6
308.15 K, x1 = 0.06734	840.85
308.15 K, x1 = 0.1335	821.8
308.15 K, x1 = 0.1989	804.98
308.15 K, x1 = 0.2562	791.81
308.15 K, x1 = 0.3283	776.91
308.15 K, x1 = 0.3888	765.56
308.15 K, x1 = 0.4682	752.18
308.15 K, x1 = 0.5284	742.95
308.15 K, x1 = 0.5971	733.35
308.15 K, x1 = 0.6592	725.32
308.15 K, x1 = 0.7248	717.54
308.15 K, x1 = 0.8156	707.74
308.15 K, x1 = 0.8852	700.86
308.15 K, x1 = 0.9515	694.77
308.15 K, x1 = 1	690.44
318.15 K, x1 = 0.06734	830.41
318.15 K, x1 = 0.1335	811.7
318.15 K, x1 = 0.1932	796.52
318.15 K, x1 = 0.2511	783.28
318.15 K, x1 = 0.3289	767.43
318.15 K, x1 = 0.3937	755.54
318.15 K, x1 = 0.4681	743.19
318.15 K, x1 = 0.5302	733.8
318.15 K, x1 = 0.5866	726.02
318.15 K, x1 = 0.6709	715.36
318.15 K, x1 = 0.7248	709.07
318.15 K, x1 = 0.8156	699.39
318.15 K, x1 = 0.8852	692.61
318.15 K, x1 = 0.9515	686.61
318.15 K, x1 = 1	682.47
328.15 K, x1 = 0.06734	820.09
328.15 K, x1 = 0.1335	801.67
328.15 K, x1 = 0.1932	786.83
328.15 K, x1 = 0.2511	773.79
328.15 K, x1 = 0.3289	758.15
328.15 K, x1 = 0.3937	746.47
328.15 K, x1 = 0.4681	734.35
328.15 K, x1 = 0.5302	725.13
328.15 K, x1 = 0.5866	717.46
328.15 K, x1 = 0.6709	706.93
328.15 K, x1 = 0.7248	700.75
328.15 K, x1 = 0.8156	691.2
328.15 K, x1 = 0.8852	684.52
328.15 K, x1 = 0.9515	678.62
328.15 K, x1 = 1	674.54

c1ccccc1 [benzene]
Settings	refractive index
[2]	1.4979

[3]
Settings	mass density [kg/m3]
298.15 K	873.62
308.15 K	863.01
318.15 K	852.16
328.15 K	841.49

Cc1ccccc1 [toluene] + CCCCCCCC
[1], x2 = 0
Settings	mass density [kg/m3]
298.15 K	862.29
308.15 K	852.86
318.15 K	843.6
328.15 K	834.29

CCCCCCCC [octane]
Settings	refractive index
[2]	1.395

[3]
Settings	mass density
298.15 K	698.62 kg/m3 [middle of 4 runs]
308.15 K	690.44 kg/m3 and 690.43 kg/m3 and 690.45 kg/m3
318.15 K	682.47 kg/m3 and 682.49 kg/m3
328.15 K	674.55 kg/m3 and 674.56 kg/m3 and 674.54 kg/m3

Cc1cccc(C)c1 [1,3-dimethylbenzene] + CCCCCCCC
[1]
Settings	mass density [kg/m3]
298.15 K, x2 = 0	859.85
298.15 K, x2 = 0.06642	845.86
298.15 K, x2 = 0.1397	831.1
298.15 K, x2 = 0.2052	818.49
298.15 K, x2 = 0.276	805.42
298.15 K, x2 = 0.323	797.05
298.15 K, x2 = 0.3982	784.13
298.15 K, x2 = 0.4618	773.65
298.15 K, x2 = 0.5432	760.8
298.15 K, x2 = 0.5993	752.28
298.15 K, x2 = 0.6755	741.14
298.15 K, x2 = 0.7284	733.68
298.15 K, x2 = 0.7851	725.91
298.15 K, x2 = 0.8583	716.27
298.15 K, x2 = 0.925	707.79
308.15 K, x2 = 0	851.2
308.15 K, x2 = 0.06642	837.23
308.15 K, x2 = 0.1397	822.5
308.15 K, x2 = 0.2052	809.92
308.15 K, x2 = 0.276	796.89
308.15 K, x2 = 0.323	788.53
308.15 K, x2 = 0.3954	776.12
308.15 K, x2 = 0.4618	765.21
308.15 K, x2 = 0.5432	752.4
308.15 K, x2 = 0.5993	743.9
308.15 K, x2 = 0.6755	732.79
308.15 K, x2 = 0.7284	725.36
308.15 K, x2 = 0.7851	717.64
308.15 K, x2 = 0.8583	708.01
308.15 K, x2 = 0.925	699.57
318.15 K, x2 = 0	842.66
318.15 K, x2 = 0.0687	828.23
318.15 K, x2 = 0.1168	818.54
318.15 K, x2 = 0.207	801.13
318.15 K, x2 = 0.2651	790.45
318.15 K, x2 = 0.3289	779.13
318.15 K, x2 = 0.4087	765.6
318.15 K, x2 = 0.4672	756.08
318.15 K, x2 = 0.5321	745.88
318.15 K, x2 = 0.6067	734.61
318.15 K, x2 = 0.6634	726.39
318.15 K, x2 = 0.7288	717.2
318.15 K, x2 = 0.7923	708.59
318.15 K, x2 = 0.8634	699.33
318.15 K, x2 = 0.9502	688.48
328.15 K, x2 = 0	834.13
328.15 K, x2 = 0.0687	819.75
328.15 K, x2 = 0.1168	810.1
328.15 K, x2 = 0.207	792.73
328.15 K, x2 = 0.2651	782.09
328.15 K, x2 = 0.3289	770.81
328.15 K, x2 = 0.4087	757.32
328.15 K, x2 = 0.4672	747.81
328.15 K, x2 = 0.5287	738.2
328.15 K, x2 = 0.6067	726.45
328.15 K, x2 = 0.6634	718.26
328.15 K, x2 = 0.7288	709.11
328.15 K, x2 = 0.7923	700.55
328.15 K, x2 = 0.8634	691.33
328.15 K, x2 = 0.9502	680.52

Cc1cccc(C)c1 [1,3-dimethylbenzene]
Settings	refractive index
[2]	1.4945

[3]
Settings	mass density [kg/m3]
298.15 K	859.85
308.15 K	851.2
318.15 K	842.66
328.15 K	834.13
